Marks after values point to notes of the source that are not given here. Where a SMILES comes first, the peptide text is derived from it.
Columns and labels:
[1] = system: rat myocardium, TMTD poisoning; test: Toxicochemical myocardiopathy by tetramethyl thiuram disulfide (TMTD) poisoning in rats; type: in vivo
Protocol: The experiment was conducted on 40 white mongrel rats with body weight of 220-230 g. The animals were randomly subdivided into four groups. The intoxication of animals with tetramethyl thiuram disulfide (TMTD) industrial poison was conducted in the form of 20-day course of 5% oil TMTD solution administration in the dose of 25 mg/kg intragastrically. The tetrapeptide was administered during the last 10 days of the experiment intramuscularly in the dose of 0.05 μg per animals in sterile 0.9% NaCl solution. Upon expiry of the indicated terms both the control and experimental animals were killed by momentary decapitation. Myocardium fragments were fixed by 12% formalin solution. Paraphin slices were stained by hematoxylin-eosine, as well as by Van Gison, Brachet, with sudan III, IV. Intact animals served as the control.

[2] = system: chlorine-calcium arrhythmia in rats; test: Chlorine-calcium (CaCl2) arrhythmia in rats; type: in vivo; settings: for Death after the first arrhythmogen administration, abs.: 10 animals
Protocol: The experiment was conducted on 60 white mongrel rats with body weight of 180-200 g. The animals were randomly subdivided into 6 groups, each consisting of 10 animals. The rats were narcotized with urethane and received 220 mg/kg of 10% CaCl2 solution. Ala-Glu-Asp-Arg tetrapeptide was administered to the animals intraperitoneally, once, in the doses of 0.05-1.0 μg/kg in sterile 0.9% NaCl solution.

[3] = system: isolated guinea pig heart; test: Isolated guinea pig heart, Langendorf perfusion, 30 min total ischemia and re-perfusion; parameters: species or system guinea pigs
Protocol: The experiment was conducted under conditions of perfusion in isolated hearts of 60 male guinea pigs, by Langendorf. The animals were randomly subdivided into several groups, each consisting of 6 animals. Total cardiac ischemia was induced by means of fully tightening the perfusional solution hose for 30 minutes. Then re-perfusion was performed under the same conditions as before ischemia (control group). In experimental animals perfusion was performed together with Ala-Glu-Asp-Arg (SEQ ID NO:1) tetrapeptide in the concentrations of 0.002-0.05 μg/ml. Mechanical contractions were registered, bioptates, weighing approximately 10 mg, were several times taken from the top of the heart, then the content of malon dialdegide (MDA) was identified in them. The hearts in the end of the experiment and partially before ischemia were frozen in liquid nitrogen for ATP, ADP and AMP content identification.

[4] = system: experimental myocardium infarction in rats; test: Experimental myocardium infarction by left coronary artery vasoligation in rats; type: in vivo; settings: for Necrosis zone size, % of ventricle mass: 0.05 μg per animal i.p. 1, 3, 5 h after occlusion; for Death rate: 20 animals per group
Protocol: The experiment was conducted on 40 white mongrel rats each weighing 180-200 g. The animals were randomly subdivided into two groups, 20 animals in each. Myocardium infarction (MI) was induced by vasoligation of the left coronary artery. Ala-Glu-Asp-Arg tetrapeptide was administered to the animals intraperitoneally in the dose of 0.05 μg per animal in sterile 0.9% NaCl solution three times—in 1, 3 and 5 hours after coronary occlusion. Rats were decapitated in 6 and 24 hours after the surgery. Animals subjected to the surgery, which intraperitoneally received 0.9% NaCl solution, served as the control. MI zone size was identified gravimetrically. Myocardium fragments were fixed for light and electronic microscopy, part of the material was frozen in liquid nitrogen for biochemical studies.

[5] = TMTD 25 mg/kg 20 days + tetrapeptide 0.05 μg per animal i.m. last 10 days
[6] = intact animals, 0.05 μg per animal i.m. 10 days
[7] = 0.002 μg/ml, re-perfusion 15 min
[8] = 0.002 μg/ml, re-perfusion 30 min
[9] = 0.005 μg/ml, re-perfusion 15 min
[10] = 0.005 μg/ml, re-perfusion 30 min
[11] = 0.01 μg/ml, re-perfusion 15 min
[12] = 0.01 μg/ml, re-perfusion 30 min
[13] = 0.05 μg/ml, re-perfusion 15 min
[14] = 0.05 μg/ml, re-perfusion 30 min
[15] = 0.05 μg per animal i.p., 6 hours
[16] = 0.05 μg per animal i.p., 24 hours

C[C@H](N)C(=O)N[C@@H](CCC(=O)O)C(=O)N[C@@H](CC(=O)O)C(=O)N[C@@H](CCCNC(=N)N)C(=O)O [Tetrapeptide, L-alanyl-L-glutamyl-L-aspartyl-L-arginine] (H-AEDR-OH)
Cardiomyocyte nuclei volume [1, 5]: 365.4 ± 13.8** μm^3 | Nuclear-cytoplasmatic ratio [1, 5]: 0.28±0.03 | Parenchyma volume [1, 5]: 0.83 ± 0.02** cm^3/cm^3 | Stroma volume [1, 5]: 0.180±0.02 cm^3/cm^3 | Vessels volume, Vcap/Vcmc [1, 5]: 0.07 ± 0.02 Vcap/Vcmc | Increase of the filling of the myocardium ([1]; intact animals, versus control): 11% | Increase of the volume of cardiomyocytes' nuclei ([1]; intact animals, versus control): 14% | Cardiomyocyte nuclei volume [1, 6]: 386.2 ± 2.1* μm^3 | Nuclear-cytoplasmatic ratio [1, 6]: 0.40 ± 0.04 | Parenchyma volume [1, 6]: 0.82 ± 0.04 cm^3/cm^3 | Stroma volume [1, 6]: 0.159 ± 0.05 cm^3/cm^3 | Vessels volume, Vcap/Vcmc [1, 6]: 0.08 ± 0.006 Vcap/Vcmc | Death after the first arrhythmogen administration, % ([2]; 0.05 μg/kg i.p. once): 50% | Frequency of sinus rhythm restoration after the first CaCl2 administration ([2]; 0.05 μg/kg i.p. once): 27.0% | Frequency of ventricle fibrillation development in the course of the experiment ([2]; 0.05 μg/kg i.p. once): 60.3% | Maximum tolerable arrhythmogen dose ([2]; 0.05 μg/kg i.p. once): 220 mg/kg | Death after the first arrhythmogen administration, abs. ([2]; 0.05 μg/kg i.p. once): 5 | Death after the first arrhythmogen administration, % ([2]; 0.1 μg/kg i.p. once): 50% | Frequency of sinus rhythm restoration after the first CaCl2 administration ([2]; 0.1 μg/kg i.p. once): 29.6% | Frequency of ventricle fibrillation development in the course of the experiment ([2]; 0.1 μg/kg i.p. once): 45.8% | Maximum tolerable arrhythmogen dose ([2]; 0.1 μg/kg i.p. once): 220 mg/kg | Death after the first arrhythmogen administration, abs. ([2]; 0.1 μg/kg i.p. once): 5 | Increase of frequency of heart contractions (FHC) ([2]; 0.2 μg/kg and 0.5 μg/kg, bradicardia rats): 12.3-48.6% | Death after the first arrhythmogen administration, % ([2]; 0.2 μg/kg i.p. once): 30% | Frequency of sinus rhythm restoration after the first CaCl2 administration ([2]; 0.2 μg/kg i.p. once): 49.0* % | Frequency of ventricle fibrillation development in the course of the experiment ([2]; 0.2 μg/kg i.p. once): 35.2* % | Maximum tolerable arrhythmogen dose ([2]; 0.2 μg/kg i.p. once): 440 mg/kg | Death after the first arrhythmogen administration, abs. ([2]; 0.2 μg/kg i.p. once): 3 | Death after the first arrhythmogen administration, % ([2]; 0.5 μg/kg i.p. once): 40% | Frequency of sinus rhythm restoration after the first CaCl2 administration ([2]; 0.5 μg/kg i.p. once): 39.5* % | Frequency of ventricle fibrillation development in the course of the experiment ([2]; 0.5 μg/kg i.p. once): 39.1* % | Maximum tolerable arrhythmogen dose ([2]; 0.5 μg/kg i.p. once): 440 mg/kg | Death after the first arrhythmogen administration, abs. ([2]; 0.5 μg/kg i.p. once): 4 | Death after the first arrhythmogen administration, % ([2]; 1.0 μg/kg i.p. once): 60% | Frequency of sinus rhythm restoration after the first CaCl2 administration ([2]; 1.0 μg/kg i.p. once): 16.3% | Frequency of ventricle fibrillation development in the course of the experiment ([2]; 1.0 μg/kg i.p. once): 43.6% | Maximum tolerable arrhythmogen dose ([2]; 1.0 μg/kg i.p. once): 220 mg/kg | Death after the first arrhythmogen administration, abs. ([2]; 1.0 μg/kg i.p. once): 6 | Most efficient dose ([2]; doses 0.05-1.0 μg/kg i.p. tested): 0.0002 mg/kg | Amplitude of contractions, % of initial ([3]; 0.002 μg/ml, before ischemia): 100 % of initial | MDA ([3]; 0.002 μg/ml, before ischemia): 225 ± 23 nmole/g of tissue | Amplitude of contractions, % of initial [3, 7]: 70 ± 13 % of initial | MDA [3, 7]: 216 ± 5 nmole/g of tissue | Amplitude of contractions, % of initial [3, 8]: 81 ± 16 % of initial | MDA [3, 8]: 220 ± 12 nmole/g of tissue | Amplitude of contractions, % of initial ([3]; 0.005 μg/ml, before ischemia): 100 % of initial | MDA ([3]; 0.005 μg/ml, before ischemia): 168 ± 25 nmole/g of tissue | Amplitude of contractions, % of initial [3, 9]: 89 ± 6 % of initial | MDA [3, 9]: 231 ± 7 nmole/g of tissue | Amplitude of contractions, % of initial [3, 10]: 93 ± 5 % of initial | MDA [3, 10]: 186 ± 10 nmole/g of tissue | Amplitude of contractions, % of initial ([3]; 0.01 μg/ml, before ischemia): 100 % of initial | MDA ([3]; 0.01 μg/ml, before ischemia): 203 ± 18 nmole/g of tissue | Amplitude of contractions, % of initial [3, 11]: 61 ± 4 % of initial | MDA [3, 11]: 248 ± 8 nmole/g of tissue | Amplitude of contractions, % of initial [3, 12]: 64 ± 3 % of initial | MDA [3, 12]: 220 ± 9 nmole/g of tissue | Amplitude of contractions, % of initial ([3]; 0.05 μg/ml, before ischemia): 100 % of initial | Energy charge ([3]; 0.05 μg/ml, before ischemia): 7.78 ± 0.14 μmole of adenosine phosphates/g of tissue | MDA ([3]; 0.05 μg/ml, before ischemia): 156 ± 28 nmole/g of tissue | Amplitude of contractions, % of initial [3, 13]: 38 ± 13 % of initial | MDA [3, 13]: 264 ± 13 nmole/g of tissue | Amplitude of contractions, % of initial [3, 14]: 32 ± 9 % of initial | Energy charge [3, 14]: 2.98 ± 0.35 μmole of adenosine phosphates/g of tissue | MDA [3, 14]: 252 ± 11 nmole/g of tissue | Energy charge ([3]; 0.002-0.005 μg/ml, before ischemia): 7.68 ± 0.21 μmole of adenosine phosphates/g of tissue | Energy charge ([3]; 0.002-0.005 μg/ml, re-perfusion 30 min): 6.01 ± 0.23 μmole of adenosine phosphates/g of tissue | Influence on the status of the normal heart ([3]; perfusion without ischemia): does not influence the status of the normal heart | Necrosis zone size, % of ventricle mass ([4]; 6 hours): 38.1 ± 1.8 % of ventricle mass | Necrosis zone size, % of ventricle mass ([4]; 24 hours): 49.6 ± 1.6 % of ventricle mass | Content in the blood serum: CPK [4, 15]: 961 ± 52 nmole/s · 1 | Content in the blood serum: LDH [4, 15]: 309 ± 16 nmole/s · 1 | Content in the blood serum: glucose [4, 15]: 3.12 ± 0.09 mmol/L | Glycogen content in the myocardium [4, 15]: 1.05 ± 0.12 g/kg of the tissue | Death rate [4, 15]: 2 | Content in the blood serum: CPK [4, 16]: 923 ± 38 nmole/s · 1 | Content in the blood serum: LDH [4, 16]: 201 ± 15 nmole/s · 1 | Content in the blood serum: glucose [4, 16]: 3.01 ± 0.11 mmol/L | Glycogen content in the myocardium [4, 16]: 1.18 ± 0.12 g/kg of the tissue | Death rate [4, 16]: 1 | Mortality rate during the first 24 hours after infarction ([4]; 0.05 μg per animal i.p., control 45%): 15% | Decrease of glucose content in the blood ([4]; acute myocardium ischemia, versus control): ~1.5 times | Coefficient of mitochondria energy efficiency ([4]; electronograms, 24 hours since beginning of MI, control 41.5±2.4): 93.2±2.3%

— patent US7662789B2, “Peptide substance restoring myocardium function” (“Access Bioscience” CJSC, priority 2004, dated 2010)
